Experimental data taken from patent US20040171688A1, “Carboxylic acids and derivatives thereof and pharmaceutical compositions containing them” (priority 1997, published 2004).
Entries after “also recorded” stand apart in the source; their conditions may differ.

Key:
HNF-4α [1] = target: T1, HNF-4α (Rattus norvegicus, UniProt P22449); assay: Ligand binding assay with [3H]palmitoyl(16:0)-CoA on recombinant GST-HNF-4α(LBD) or His-HNF-4α; details: competition with 8 nM [3H]palmitoyl(16:0)-CoA; GST-HNF-4α(LBD) or His-HNF-4α; read-out: EC50 (50% specific competition)
T1 construct: GST-HNF-4α(LBD) fusion protein consisting of amino acids 96-455 of wild type HNF-4α fused to GST; fused on or other part: Glutathione-S-transferase (GST) at the N-terminus of the LBD construct; 6-histidine tag on the full-length construct
T1 sequence (P22449 105-464 isoform P22449-2 limits assumed): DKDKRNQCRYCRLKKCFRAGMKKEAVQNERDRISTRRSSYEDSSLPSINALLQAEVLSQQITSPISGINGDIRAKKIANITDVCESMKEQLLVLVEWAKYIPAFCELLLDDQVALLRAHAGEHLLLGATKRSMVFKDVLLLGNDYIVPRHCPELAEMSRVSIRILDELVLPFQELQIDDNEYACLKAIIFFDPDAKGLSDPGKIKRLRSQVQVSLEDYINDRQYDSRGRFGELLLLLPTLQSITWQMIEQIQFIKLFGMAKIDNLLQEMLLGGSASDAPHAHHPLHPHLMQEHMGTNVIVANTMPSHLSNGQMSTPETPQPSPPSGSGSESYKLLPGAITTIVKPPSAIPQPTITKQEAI
Protocol: a. […] The respective recombinant proteins are incubated to equilibrium with [^3H]palmitoyl(16:0)-CoA (0.05 μCi) and with increasing nonlabeled palmitoyl(16:0)-CoA as indicated.
b. […] The respective recombinant proteins are incubated with 8 nM of [^3H]palmitoyl(16:0)-CoA (60 Ci/mmol) and with increasing nonlabeled myristoyl(14:0)-CoA as indicated. Percent bound refers to radiolabeled [^3H]palmitoyl(16:0)-CoA in the bound fraction. […] Percent bound refers to radiolabeled [^3H]palmitoyl(16:0)-CoA in the bound fraction.
Rat HNF-4α1 cDNA(pLEN4S)^1 was subcloned into the glutathione-S-transferase (GST) encoding pGEX-2T plasmid (Pharmacia) and the resultant plasmid was cleaved with smaI and AccI and religated to yield the GST-HNF-4α(LBD) fusion plasmid. […] The full length HNF-4α1 cDNA cloned into 6His-pET11d vector was expressed in E.coli BL21 (DE3)plysS.
Recombinant GST-HNF-4α(LBD) (100 pmol) or His-HNF-4α (100 pmol) were incubated for 60 min at 22° C. with [^3H]palmitoyl(16:0)-CoA (American RadiolabeledChemicals) in 100 μl of 10 mM phosphate buffer (pH 7.4). Competitor ligands or solvent carrier were added as indicated. Free and HNF-4α bound ^3[H]palmitoyl(16:0)-CoA were separated by […] and bound ligand was quantified by liquid scintillation counting. Nonspecific binding of [^3H]palmitoyl(16:0)-CoA was determined by its binding to the GST moiety or to carbonic anhydrase as nonrelevant protein.
Binding was exemplified with either the ligand binding domain of HNF-4α fused to glutathione-s-transferase (GST-HNF-4α(LBD)) or the full length HNF-4α protein tagged by 6 histidines (His-HNF-4α).

HNF-4α [2] = target: T2, HNF-4α (Rattus norvegicus, UniProt P22449); assay: Gel mobility shift assay: His-HNF-4α binding to C3P apo CIII promoter oligonucleotide; assay type: biochemical; design: The full length HNF-4α1 cDNA cloned into 6His-pET11d vector was expressed in E.coli BL21 (DE3)plysS; 6His; made in house; host or cells: E. coli BL21 (DE3)plysS; details: for effect on His-HNF-4α binding to C3P oligonucleotide: gel mobility shift, 10 μM acyl-CoA (FIG. 2)
T2 sequence (P22449 1-464 isoform P22449-2): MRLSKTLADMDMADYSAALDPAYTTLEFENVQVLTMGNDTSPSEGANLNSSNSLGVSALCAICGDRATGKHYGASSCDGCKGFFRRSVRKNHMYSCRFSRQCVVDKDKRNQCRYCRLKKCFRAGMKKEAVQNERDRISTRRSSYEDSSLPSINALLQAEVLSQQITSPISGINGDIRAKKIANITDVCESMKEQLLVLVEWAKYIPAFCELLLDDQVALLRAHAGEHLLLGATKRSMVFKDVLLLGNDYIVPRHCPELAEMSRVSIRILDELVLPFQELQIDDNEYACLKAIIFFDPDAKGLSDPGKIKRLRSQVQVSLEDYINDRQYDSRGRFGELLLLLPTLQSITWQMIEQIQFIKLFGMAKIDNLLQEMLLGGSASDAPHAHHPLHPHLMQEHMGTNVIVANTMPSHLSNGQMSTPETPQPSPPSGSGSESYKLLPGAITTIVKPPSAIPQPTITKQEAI
Protocol: a. His-HNF-4I (14 ng) binding to C3P in the absence (lane 1) or presence of 10 μM each of myristoyl(14:0)-CoA (lane 2) or palmitoyl(16:0)-CoA (lane 3).
b. His-HNF-4I (20 ng) binding to C3P in the absence (lane 1) or presence of 10 μM each of stearoyl(18:0)-CoA (lane 2) or linolenoyl(18:3, w-3)-CoA (lane 3).
c. Activation of His-HNF-4I (14 ng) binding to C3P by increasing concentrations of myristoyl(14:0)-CoA. The gel section containing radiolabeled C3P bound to His-HNF-4I dimer is shown.
His-HNF-4α and acyl-CoA (as indicated) were preincubated for 30 min at 22° C. in 11 mM Hepes (pH 7.9) containing 50 mM KCl, 1 mM dithiothreitol. 2.5 mM MgCl2, 10% glycerol, 1 μg of poly(dI-dC) in a final volume of 20 μl. ^32P-labeled oligonucleotide (0.1 ng) consisting of the human C3P apo CIII promoter sequence,(−87/−66)^6 was then added, and incubation was continued for an additional 15 min. Protein-DNA complexes were resolved by 5% nondenaturing polyacrylamide gel in 0.6×TBE and quantitated by PhosphorImager analysis.
HNF-4α activity as a function of binding of long chain acyl-CoAs was evaluated by studying the binding of HNF-4α to its cognate C3P element of the apo CIII promoter sequence (−87/−66)^6 in the presence or absence of added acyl-CoAs of variable chain length, degree of saturation, and degree of substitution. Binding was verified by using a gel mobility shift assay. […] Activation was concentration dependent and maximal in the presence of myristoyl(14:0)-CoA added within a concentration range required for its binding to HNF-4α.

Row | EC50 (HNF-4α [1]) [µM] | effect on His-HNF-4α binding to C3P oligonucleotide (HNF-4α [2]) | direct effect on HNF-4α (summary) (HNF-4α [2]; summary statement of Example 4) | Structure (SMILES)
1 | 2.7 | potent inhibition | antagonistic effect | CCCCCCCCCCCCCCCCCC(=O)SCCNC(=O)CCNC(=O)[C@H](O)C(C)(C)COP(=O)(O)OP(=O)(O)OC[C@H]1O[C@@H](n2cnc3c(N)ncnc32)[C@H](O)[C@@H]1OP(=O)(O)O [Stearoyl(18:0)-CoA]
2 | 1.4 | Activation; also recorded: maximal | – | CCCCCCCCCCCCCC(=O)SCCNC(=O)CCNC(=O)[C@H](O)C(C)(C)COP(=O)(O)OP(=O)(O)OC[C@H]1O[C@@H](n2cnc3c(N)ncnc32)[C@H](O)[C@@H]1OP(=O)(O)O [myristoyl(14:0)-CoA, reference compound]
